We go through two molecules from US8288370B2, “Substituted azetidine compounds of formula (I) useful in the treatment of functional gastrointestinal disorders, IBS, and functional dyspepsia” (Albireo AB, priority 2005, dated 2012).

In data set [1] the target is hERG-encoded potassium channel (Homo sapiens, UniProt Q12809). The experiment in a line: Activity against hERG (planar-array-based voltage clamp, Kiss et al.). In kind it is cell-based. From the text: The activity of compounds according to formula I against the hERG-encoded potassium channel can be determined according to Kiss L, et al. Assay Drug Dev Technol. 1 (2003), 127-35: “High throughput ion-channel pharmacology: planar-array-based voltage clamp”.
For orientation: The hERG channel carries a current that helps repolarise heart muscle cells.

The next data set addresses T1, human NK3 receptor (Homo sapiens, UniProt P29371).
T1 construct: expressed in transfected cells; hNK3R in pcDNA 3.1/Hygro (+)/IRES/CD8
T1 sequence (P29371 1-465): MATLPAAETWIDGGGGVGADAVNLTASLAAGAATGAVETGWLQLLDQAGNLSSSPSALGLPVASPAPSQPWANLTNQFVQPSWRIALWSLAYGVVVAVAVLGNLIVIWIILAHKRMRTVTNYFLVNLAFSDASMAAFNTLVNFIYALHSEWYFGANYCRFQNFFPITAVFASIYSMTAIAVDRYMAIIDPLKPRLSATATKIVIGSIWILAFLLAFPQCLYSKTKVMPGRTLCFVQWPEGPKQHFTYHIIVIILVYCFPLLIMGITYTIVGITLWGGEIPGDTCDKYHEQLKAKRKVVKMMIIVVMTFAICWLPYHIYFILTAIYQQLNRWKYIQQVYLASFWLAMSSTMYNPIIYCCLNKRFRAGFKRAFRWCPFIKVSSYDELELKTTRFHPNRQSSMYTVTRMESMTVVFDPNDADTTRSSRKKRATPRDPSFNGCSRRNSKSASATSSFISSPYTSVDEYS
The experiment in a line: FLIPR assay, inhibition of human NK3 receptor activation (intracellular Ca2+ increase). In kind it is cell-based. Particulars: CHO cells with human NK3 receptor, agonist Pro-7-NKB; pKB converted from IC50. The procedure: (§1) Chinese Hamster Ovary (CHO) K1 cells (obtained from ATCC) were stably transfected with the human NK2 receptor (hNK2R cDNA in pRc/CMV, Invitrogen) or the human NK3 receptor (hNK3R in pcDNA 3.1/Hygro (+)/IRES/CD8, Invitrogen vector modified at AstraZeneca EST-Bio UK, Alderley Park). The cells were transfected with the cationic lipid reagent LIPOFECTAMINE™ (Invitrogen) and selection was performed with Geneticin (G418, Invitrogen) at 1 mg/ml for the hNK2R transfected cells and with Hygromycin (Invitrogen) at 500 μg/ml for the hNK3R transfected cells. Single cell clones were collected by aid of Fluorescence Activated Cell Sorter (FACS), tested for functionality in a FLIPR assay (see below), expanded in culture and cryopreserved for future use. CHO cells stably transfected with human NK1 receptors originates from AstraZeneca R&D, Wilmington USA. Human NK1 receptor cDNA (obtained from RNA-PCR from lung tissue) was subcloned into pRcCMV (Invitrogen). Transfection was performed by Calcium Phosphate and selection with 1 mg/ml G418. […]
(§2) The activity of a compound of the invention to inhibit NK1/NK2/NK3 receptor activation measured as NK1/NK2/NK3 receptor mediated increase in intracellular Ca^2+ was assessed by the following procedure: […]

The target of the next data set is T2, human NK1 receptor (Homo sapiens, UniProt P25103).
T2 construct: expressed in transfected cells; cDNA in pRcCMV
The experiment in a line: FLIPR assay, inhibition of human NK1 receptor activation (intracellular Ca2+ increase). Particulars: CHO cells with human NK1 receptor, agonist Substance P; pKB converted from IC50. Type of data set: cell-based. The procedure:
as §1, §2

Data set [2] can be described thus: Metabolic stability in liver microsomes (intrinsic clearance). In kind it is in vitro ADME. The conditions noted are these: human, pH 7.4, HLM. The procedure:
The rate of biotransformation can be measured as either metabolite(s) formation or the rate of disappearance of the parent compound. The experimental design involves incubation of low concentrations of substrate (usually 1.0 μM) with liver microsomes (usually 0.5 mg/ml) and taking out aliquotes at varying time points (usually 0, 5, 10, 15, 20, 30, 40 min.). The test compound is usually dissolved in DMSO. The DMSO concentration in the incubation mixture is usually 0.1% or less since more solvent can drastically reduce the activities of some CYP450s. Incubations are done in 100 mM potassium phosphate buffer, pH 7.4 and at 37° C. Acetonitrile or methanol is used to stop the reaction. The parent compound is analysed by HPLC-MS. From the calculated half-life, t1/2, the intrinsic clearance, Clint, is estimated by taking microsomal protein concentration and liver weight into account.

A further data set addresses CYP3A4 (Homo sapiens, UniProt P08684). Nature of the data set: CYP3A4 inhibition assay (Bapiro et al.). Type of data set: in vitro ADME. The source says:
It is well known that severe problems such as toxicity may occur if plasma levels of one medication are altered by the co-administration of another drug. […] CYP (cytochrome P450) 3A4 is the most important enzyme in the human liver as a majority of oxidised drugs have been biotransformed by this enzyme. Accordingly, it is undesirable to employ a medication having a significant degree of such liver enzyme inhibiting properties. […] Thus, there is a need for a novel NK receptor antagonist with improved pharmacokinetic properties. The present invention provides compounds with CYP3A4 enzyme inhibiting properties at a low level, as comparatively high IC50 values are obtained in a CYP3A4 inhibiting assay. Said method for determining CYP3A4 inhibition is described in Bapiro et al; Drug Metab. Dispos. 29, 30-35 (2001).
The IC50 values tested according to Bapiro et al; Drug Metab. Dispos. 29, 30-35 (2001) were generally greater than 15 μM.

The target of a further data set is T3, human NK2 receptor (Homo sapiens, UniProt P21452).
T3 construct: expressed in transfected cells; hNK2R cDNA in pRc/CMV
T3 sequence (P21452 1-398): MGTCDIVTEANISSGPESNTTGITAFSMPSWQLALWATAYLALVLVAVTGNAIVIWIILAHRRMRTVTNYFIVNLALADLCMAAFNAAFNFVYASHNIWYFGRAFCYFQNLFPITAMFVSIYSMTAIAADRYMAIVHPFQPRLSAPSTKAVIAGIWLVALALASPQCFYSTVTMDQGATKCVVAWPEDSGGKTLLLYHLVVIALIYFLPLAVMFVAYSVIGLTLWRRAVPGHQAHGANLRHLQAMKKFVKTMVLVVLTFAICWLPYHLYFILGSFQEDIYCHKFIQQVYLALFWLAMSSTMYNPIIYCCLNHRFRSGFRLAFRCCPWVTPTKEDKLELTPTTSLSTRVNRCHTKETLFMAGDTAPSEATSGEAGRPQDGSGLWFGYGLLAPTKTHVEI
Nature of the data set: FLIPR assay, inhibition of human NK2 receptor activation (intracellular Ca2+ increase). In kind it is cell-based. The conditions noted are these: CHO cells with human NK2 receptor, agonist NKA; pKB converted from IC50. The procedure:
as §1, §2

The subject of data set [3] is Human Neurokinin-2 (NK2) Receptor. Particulars: literature statement; cited from earlier work.

Where a name gives a salt, the structure may show the parent alone.

T2 sequence (P25103 whole entry): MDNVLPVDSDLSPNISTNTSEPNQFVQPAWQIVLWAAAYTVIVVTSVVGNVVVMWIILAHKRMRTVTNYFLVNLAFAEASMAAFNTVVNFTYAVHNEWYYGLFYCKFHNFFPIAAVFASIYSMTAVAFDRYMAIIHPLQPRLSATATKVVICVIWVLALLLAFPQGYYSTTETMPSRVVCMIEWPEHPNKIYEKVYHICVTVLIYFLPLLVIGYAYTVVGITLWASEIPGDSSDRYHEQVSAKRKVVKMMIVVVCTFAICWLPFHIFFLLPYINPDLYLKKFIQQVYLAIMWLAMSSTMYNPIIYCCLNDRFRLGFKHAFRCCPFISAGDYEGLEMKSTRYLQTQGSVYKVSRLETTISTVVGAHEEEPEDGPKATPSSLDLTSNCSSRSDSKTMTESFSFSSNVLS
Chain of CYP3A4 (P08684 whole entry): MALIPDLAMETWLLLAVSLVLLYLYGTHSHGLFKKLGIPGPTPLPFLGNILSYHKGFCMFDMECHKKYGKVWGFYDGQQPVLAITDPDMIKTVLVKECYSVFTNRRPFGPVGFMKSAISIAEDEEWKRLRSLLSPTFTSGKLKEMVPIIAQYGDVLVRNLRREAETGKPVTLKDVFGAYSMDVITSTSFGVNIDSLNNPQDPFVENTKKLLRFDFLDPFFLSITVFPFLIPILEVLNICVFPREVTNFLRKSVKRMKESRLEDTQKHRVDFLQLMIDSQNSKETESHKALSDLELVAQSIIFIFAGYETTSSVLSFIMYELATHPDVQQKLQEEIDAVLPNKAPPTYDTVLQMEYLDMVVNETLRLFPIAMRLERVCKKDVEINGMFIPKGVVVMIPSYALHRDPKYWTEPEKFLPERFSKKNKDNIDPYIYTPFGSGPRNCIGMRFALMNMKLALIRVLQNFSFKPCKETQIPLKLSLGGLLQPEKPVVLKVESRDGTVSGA
Chain of hERG-encoded potassium channel (Q12809 whole entry): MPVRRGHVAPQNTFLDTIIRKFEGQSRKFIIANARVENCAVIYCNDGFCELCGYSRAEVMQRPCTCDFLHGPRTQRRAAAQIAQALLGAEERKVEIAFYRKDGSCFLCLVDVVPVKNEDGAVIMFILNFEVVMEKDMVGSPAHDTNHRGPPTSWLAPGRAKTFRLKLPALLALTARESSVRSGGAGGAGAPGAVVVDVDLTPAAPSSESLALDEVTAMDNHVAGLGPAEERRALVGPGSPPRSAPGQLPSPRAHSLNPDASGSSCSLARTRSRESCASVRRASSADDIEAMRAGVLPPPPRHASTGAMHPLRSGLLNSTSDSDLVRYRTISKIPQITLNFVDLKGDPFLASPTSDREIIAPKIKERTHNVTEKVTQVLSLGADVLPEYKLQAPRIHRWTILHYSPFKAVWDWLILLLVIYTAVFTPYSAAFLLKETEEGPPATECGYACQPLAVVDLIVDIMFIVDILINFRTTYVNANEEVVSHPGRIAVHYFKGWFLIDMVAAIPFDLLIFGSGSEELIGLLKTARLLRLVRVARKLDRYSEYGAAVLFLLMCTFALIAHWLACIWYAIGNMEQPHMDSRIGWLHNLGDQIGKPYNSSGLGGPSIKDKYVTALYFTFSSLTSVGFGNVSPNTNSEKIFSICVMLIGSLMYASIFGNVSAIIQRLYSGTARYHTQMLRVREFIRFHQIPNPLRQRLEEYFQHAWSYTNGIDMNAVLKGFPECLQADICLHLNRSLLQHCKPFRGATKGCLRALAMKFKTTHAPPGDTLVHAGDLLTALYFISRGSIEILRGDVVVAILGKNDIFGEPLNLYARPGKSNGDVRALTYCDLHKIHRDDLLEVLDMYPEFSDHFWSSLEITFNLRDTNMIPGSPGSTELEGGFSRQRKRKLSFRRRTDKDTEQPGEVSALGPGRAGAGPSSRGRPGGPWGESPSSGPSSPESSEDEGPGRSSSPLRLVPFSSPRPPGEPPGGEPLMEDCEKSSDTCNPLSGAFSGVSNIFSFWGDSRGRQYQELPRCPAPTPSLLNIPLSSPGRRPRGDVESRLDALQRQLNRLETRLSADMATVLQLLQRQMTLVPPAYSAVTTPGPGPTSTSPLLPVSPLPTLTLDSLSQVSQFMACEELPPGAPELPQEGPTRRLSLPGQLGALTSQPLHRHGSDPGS

For the molecule `CN(C[C@@H](CCN1CC(N2CCN3C(=O)CC[C@@H]3C2)C1)c1ccc(F)cc1)C(=O)c1cc(Br)cc(C(F)(F)F)c1` [Ex 1, 3-Bromo-N-((2S)-2-(4-fluorophenyl)-4-{3-[(8aR)-6-oxohexahydropyrrolo[1,2-a]pyrazin-2(1H)-yl]azetidin-1-yl}butyl)-N-methyl-5-(trifluoromethyl)benzamide dihydrochloride], the IC50 in data set [1] is 12400 nM; on CYP3A4, > 50000 nM. The Kb on human NK3 receptor was 3.16 nM; at human NK1 receptor it was 2 nM; at human NK2 receptor, 15.8 nM. Moreover, in data set [2], the microsomal CLint at 1 μM was found to be 14 µL/min/mg.

In the case of `CN(CC(CCN1CC(N2CCOCC2)C1)c1ccc(Cl)c(Cl)c1)C(=O)c1ccccc1` (stereo not shown) [N-[2-(3,4-dichlorophenyl)-4-(3-morpholin-4-ylazetidin-1-yl)butyl]-N-methylbenzamide], the “functional NK2 receptor antagonistic properties” value in data set [3] is recorded as “possess functional NK2 receptor antagonistic properties”.

The term IC50 denotes the concentration that inhibits the measured activity by half. A lower IC50 goes with greater potency in that assay. As a reminder, the microsomal CLint is a measure of how fast metabolising enzymes remove a compound, apart from limits set by blood flow. Read a low microsomal CLint as slow turnover.
